These results are taken from patent US20050197350A1, “Novel quinoline, tetrahydroquinazoline, and pyrimidine derivatives and methods of treatment related to the use thereof” (TAISHO PHARMACEUTICAL CO., LTD., priority 2003, published 2005).

The assay concerns MCH receptors. As to the kind of experiment: MCH receptor activity class (method not given). Conditions: class by percent of control at 10^-7 M or IC50.

Each structure is given as a SMILES string.

`CN(C)c1cc(N[C@H]2CC[C@@H](NC(=O)c3ccc(I)o3)CC2)nc2ccccc12` [compound 680, N-(cis-4-{[4-(dimethylamino)quinolin-2-yl]amino}cyclohexyl)-5-iodo-2-furamide]: the class is given as 1 (Class 1: The value of percent of control at 10^−7 M was less than 40% or the value of IC50 was less than 50 nM.).
Take `CN(C)c1cc(N[C@H]2CC[C@@H](NC(=O)Cc3ccccc3I)CC2)nc2ccccc12` [compound 681, N-(cis-4-{[4-(dimethylamino)quinolin-2-yl]amino}cyclohexyl)-2-(2-iodophenyl)acetamide]: the class is 2 (Class 2: The value of percent of control at 10^−7 M was from 40% to 60% or the value of IC′50 was from 50 nM to 200 nM.).
The same measure for `COc1ccc2[nH]c(C)c(CC(=O)N[C@H]3CC[C@@H](Nc4cc(N(C)C)c5ccccc5n4)CC3)c2c1` [compound 682, N-(cis-4-{[4-(dimethylamino)quinolin-2-yl]amino}cyclohexyl)-2-(5-methoxy-2-methyl-1H-indol-3-yl)acetamide]: 2 (Class 2: The value of percent of control at 10^−7 M was from 40% to 60% or the value of IC′50 was from 50 nM to 200 nM.).
For `CN(C)c1cc(N[C@H]2CC[C@@H](NC(=O)/C=C/c3cccc([N+](=O)[O-])c3)CC2)nc2ccccc12` [compound 683] the value was 2 (Class 2: The value of percent of control at 10^−7 M was from 40% to 60% or the value of IC′50 was from 50 nM to 200 nM.).
The same measure for `CN(C)c1cc(N[C@H]2CC[C@@H](NC(=O)c3ccccc3Cc3ccccc3)CC2)nc2ccccc12` [compound 685]: 3 (Class 3 The value of percent of control at 10^−7 M was more than 60% or the value of IC50 was more than 200 nM.); for `CN(C)c1cc(N[C@H]2CC[C@@H](NC(=O)C(c3ccc(Cl)cc3)c3ccc(Cl)cc3)CC2)nc2ccccc12` [compound 686]: 2 (Class 2: The value of percent of control at 10^−7 M was from 40% to 60% or the value of IC′50 was from 50 nM to 200 nM.); for `Cc1ccc(-c2ccc(C(=O)N[C@H]3CC[C@@H](Nc4cc(N(C)C)c5ccccc5n4)CC3)o2)c([N+](=O)[O-])c1` [compound 687]: 3 (Class 3 The value of percent of control at 10^−7 M was more than 60% or the value of IC50 was more than 200 nM.).
For the molecule `CN(C)c1cc(N[C@H]2CC[C@@H](NC(=O)c3ccc([N+](=O)[O-])s3)CC2)nc2ccccc12` [compound 688, N-(cis-4-{[4-(dimethylamino)quinolin-2-yl]amino}cyclohexyl)-5-nitrothiophene-2-carboxamide], the class is 1 (Class 1: The value of percent of control at 10^−7 M was less than 40% or the value of IC50 was less than 50 nM.).
For `Cc1cc(C(=O)N[C@H]2CC[C@@H](Nc3cc(N(C)C)c4ccccc4n3)CC2)ccc1[N+](=O)[O-]` [compound 689, N-(cis-4-{[4-(dimethylamino)quinolin-2-yl]amino}cyclohexyl)-3-methyl-4-nitrobenzamide] the value was 1 (Class 1: The value of percent of control at 10^−7 M was less than 40% or the value of IC50 was less than 50 nM.); for `COc1cc(C(=O)N[C@H]2CC[C@@H](Nc3cc(N(C)C)c4ccccc4n3)CC2)ccc1[N+](=O)[O-]` [compound 690, N-(cis-4-{[4-(dimethylamino)quinolin-2-yl]amino}cyclohexyl)-3-methoxy-4-nitrobenzamide], 1 (Class 1: The value of percent of control at 10^−7 M was less than 40% or the value of IC50 was less than 50 nM.).
`CN(C)c1cc(N[C@H]2CC[C@@H](NC(=O)c3cn(Cc4ccccc4)c4ccccc34)CC2)nc2ccccc12` [compound 691]: the class is 3 (Class 3 The value of percent of control at 10^−7 M was more than 60% or the value of IC50 was more than 200 nM.).
The same measure for `CC(=O)c1cccc(C(=O)N[C@H]2CC[C@@H](Nc3cc(N(C)C)c4ccccc4n3)CC2)c1` [compound 692]: 3 (Class 3 The value of percent of control at 10^−7 M was more than 60% or the value of IC50 was more than 200 nM.); for `CN(C)c1cc(N[C@H]2CC[C@@H](NC(=O)C3CCCC[C@H]3C(=O)c3ccccc3)CC2)nc2ccccc12` (some centres unmarked) [compound 693]: 3 (Class 3 The value of percent of control at 10^−7 M was more than 60% or the value of IC50 was more than 200 nM.).
In the case of `CN(C)c1cc(N[C@H]2CC[C@@H](NC(=O)c3ccc(Br)o3)CC2)nc2ccccc12` [compound 694, 5-bromo-N-(cis-4-{[4-(dimethylamino)quinolin-2-yl]amino}cyclohexyl)-2-furamide], the class is recorded as 1 (Class 1: The value of percent of control at 10^−7 M was less than 40% or the value of IC50 was less than 50 nM.).
As for `CN(C)c1cc(N[C@H]2CC[C@@H](NC(=O)CCC3CCCCC3)CC2)nc2ccccc12` [compound 695], the class is reported as 3 (Class 3 The value of percent of control at 10^−7 M was more than 60% or the value of IC50 was more than 200 nM.).
For `Cc1ccnc(SCC(=O)N[C@H]2CC[C@@H](Nc3cc(N(C)C)c4ccccc4n3)CC2)n1` [compound 696], the class is recorded as 3 (Class 3 The value of percent of control at 10^−7 M was more than 60% or the value of IC50 was more than 200 nM.).
For `CN(C)c1cc(N[C@H]2CC[C@@H](NC(=O)c3ccc(-c4ccc(Cl)cc4)o3)CC2)nc2ccccc12` [compound 697] the value was 3 (Class 3 The value of percent of control at 10^−7 M was more than 60% or the value of IC50 was more than 200 nM.); for `CN(C)c1cc(N[C@H]2CC[C@@H](NC(=O)CCc3ccc(Cl)c(Cl)c3)CC2)nc2ccccc12` [compound 698], 3 (Class 3 The value of percent of control at 10^−7 M was more than 60% or the value of IC50 was more than 200 nM.); for `CN(C)c1cc(N[C@H]2CC[C@@H](NC(=O)Cc3ccc(Cl)c(Cl)c3)CC2)nc2ccccc12` [compound 699], 3 (Class 3 The value of percent of control at 10^−7 M was more than 60% or the value of IC50 was more than 200 nM.).
For `COc1cc(CC(=O)N[C@H]2CC[C@@H](Nc3cc(N(C)C)c4ccccc4n3)CC2)cc(OC)c1O` [compound 700] the value was 3 (Class 3 The value of percent of control at 10^−7 M was more than 60% or the value of IC50 was more than 200 nM.).
The same measure for `CN(C)c1cc(N[C@H]2CC[C@@H](NC(=O)c3cc(Br)c(Br)s3)CC2)nc2ccccc12` [compound 701]: 2 (Class 2: The value of percent of control at 10^−7 M was from 40% to 60% or the value of IC′50 was from 50 nM to 200 nM.); for `COc1cc(CC(=O)N[C@H]2CC[C@@H](Nc3cc(N(C)C)c4ccccc4n3)CC2)cc(OC)c1` [compound 702]: 3 (Class 3 The value of percent of control at 10^−7 M was more than 60% or the value of IC50 was more than 200 nM.); for `CN(C)c1cc(N[C@H]2CC[C@@H](NC(=O)Cc3cc(C(C)(C)C)c(O)c(C(C)(C)C)c3)CC2)nc2ccccc12` [compound 703]: 3 (Class 3 The value of percent of control at 10^−7 M was more than 60% or the value of IC50 was more than 200 nM.).
As to `CN(C)c1cccc(C(=O)N[C@H]2CC[C@@H](Nc3cc(N(C)C)c4ccccc4n3)CC2)c1` [compound 705], the class is given as 3 (Class 3 The value of percent of control at 10^−7 M was more than 60% or the value of IC50 was more than 200 nM.).
The same measure for `CN(C)c1cc(N[C@H]2CC[C@@H](NC(=O)c3cc(Br)c(Br)o3)CC2)nc2ccccc12` [compound 706]: 1 (Class 1: The value of percent of control at 10^−7 M was less than 40% or the value of IC50 was less than 50 nM.); for `CN(C)c1cc(N[C@H]2CC[C@@H](NC(=O)CCC(=O)c3ccc(F)cc3)CC2)nc2ccccc12` [compound 707]: 3 (Class 3 The value of percent of control at 10^−7 M was more than 60% or the value of IC50 was more than 200 nM.).
For `CN(C)c1cc(N[C@H]2CC[C@@H](NC(=O)[C@H](Cc3cn(Cc4ccccc4)cn3)NC(=O)OC(C)(C)C)CC2)nc2ccccc12` [compound 709] the value was 3 (Class 3 The value of percent of control at 10^−7 M was more than 60% or the value of IC50 was more than 200 nM.).
For `CN(C)c1cc(N[C@H]2CC[C@@H](NC(=O)Cc3c[nH]c4ccccc34)CC2)nc2ccccc12` [compound 711, N-(cis-4-{[4-(dimethylamino)quinolin-2-yl]amino}cyclohexyl)-2-(1H-indol-3-yl)acetamide] the value was 1 (Class 1: The value of percent of control at 10^−7 M was less than 40% or the value of IC50 was less than 50 nM.); for `Cc1sc(-c2ccccc2)nc1CC(=O)N[C@H]1CC[C@@H](Nc2cc(N(C)C)c3ccccc3n2)CC1` [compound 712], 3 (Class 3 The value of percent of control at 10^−7 M was more than 60% or the value of IC50 was more than 200 nM.); for `COc1ccc(CSC2(CC(=O)N[C@H]3CC[C@@H](Nc4cc(N(C)C)c5ccccc5n4)CC3)CCCCC2)cc1` [compound 714], 3 (Class 3 The value of percent of control at 10^−7 M was more than 60% or the value of IC50 was more than 200 nM.).
Regarding `COc1ccc2c(CC(=O)N[C@H]3CC[C@@H](Nc4cc(N(C)C)c5ccccc5n4)CC3)cc(=O)oc2c1` [compound 715], the class was 3 (Class 3 The value of percent of control at 10^−7 M was more than 60% or the value of IC50 was more than 200 nM.).
The same measure for `Cc1cc(C)c(NC(=O)Nc2ccc(OC(F)(F)F)cc2)c(C(=O)N[C@H]2CC[C@@H](Nc3cc(N(C)C)c4ccccc4n3)CC2)c1` [compound 718]: 3 (Class 3 The value of percent of control at 10^−7 M was more than 60% or the value of IC50 was more than 200 nM.).
For `CN(C)c1cc(N[C@H]2CC[C@@H](NC(=O)c3cc(Cl)cc(Cl)c3NC(=O)C#Cc3ccccc3)CC2)nc2ccccc12` [compound 719] the value was 3 (Class 3 The value of percent of control at 10^−7 M was more than 60% or the value of IC50 was more than 200 nM.).
For `CN(C)c1cc(N[C@H]2CC[C@@H](NC(=O)Cc3ccccc3C(=O)Nc3ccc(Cl)cc3Cl)CC2)nc2ccccc12` [compound 723] the value was 3 (Class 3 The value of percent of control at 10^−7 M was more than 60% or the value of IC50 was more than 200 nM.); for `Cc1c(C(=O)N[C@H]2CC[C@@H](Nc3cc(N(C)C)c4ccccc4n3)CC2)cc(-c2ccccc2)n1CCCN1CCOCC1` [compound 724], 3 (Class 3 The value of percent of control at 10^−7 M was more than 60% or the value of IC50 was more than 200 nM.).
